This note sets out measurements from US9174992B2, “Heterobicyclic compounds” (Amgen Inc., priority 2012, dated 2015).

For this experiment, the target named is PDE10A (UniProt Q9Y233). As to the kind of experiment: PDE10 enzyme inhibition, IMAP TR-FRET assay (Example A, MPDE10A7 Enzyme Activity and Inhibition). It is filed as biochemical. The following applies: approximate IC50 value, Table 10. In outline:
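Compounds were preincubated 60 min at room temperature with PDE10A enzyme or tissue homogenate, then fluorescein-labeled cAMP or cGMP was added for 90 min. After stopping with IMAP binding reagents, TR-FRET was read and IC50s were fitted with a four-parameter logistic equation.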
In general terms: TR-FRET usually uses a lanthanide donor and a delayed reading to cut background.

In the case of `O=C1N([C@H]2C[C@H](Nc3nc4ccccc4s3)C2)c2ncc(F)cc2C1(F)F` [Example 208, 1-(trans-3-(benzo[d]thiazol-2-ylamino)cyclobutyl)-3,3,5-trifluoro-1H-pyrrolo[2,3-b]pyridin-2(3H)-one], the IC50 (commonly the point on the concentration scale where inhibition reaches its midpoint) was found to be 0.626 nM.

`Cn1c(=O)n([C@H]2C[C@H](Nc3nc4ccc(F)cc4s3)C2)c2ncc(F)cc21` [Example 209, 6-fluoro-3-(trans-3-((6-fluorobenzo[d]thiazol-2-yl)amino)cyclobutyl)-1-methyl-1H-imidazo[4,5-b]pyridin-2(3H)-one] showed an IC50 of 0.88 nM. Compound `Cn1c(=O)n([C@H]2C[C@H](Nc3nc4cc(F)ccc4s3)C2)c2ncc(F)cc21` [Example 210, 6-fluoro-3-(trans-3-((5-fluorobenzo[d]thiazol-2-yl)amino)cyclobutyl)-1-methyl-1H-imidazo[4,5-b]pyridin-2(3 H)-one] yielded an IC50 of 0.892 nM.

As for `O=C1N([C@H]2C[C@H](Nc3nc4ccccc4s3)C2)c2ncc(Cl)cc2C1(F)F` [Example 211, 1-(trans-3-(benzo[d]thiazol-2-ylamino)cyclobutyl)-5-chloro-3,3-difluoro-1H-pyrrolo[2,3-b]pyridin-2(3 H)-one], the IC50 was determined as 0.111 nM. The figure for `O=C1N([C@H]2C[C@H](Nc3nc4ccccc4s3)C2)c2ncccc2C1(F)F` [Example 212, 1-(trans-3-(benzo[d]thiazol-2-ylamino)cyclobutyl)-3,3-difluoro-1-H-pyrrolo[2,3-b]pyridin-2-(3H)-one] is 0.449 nM; for `CC1(C)C(=O)N([C@H]2C[C@H](Nc3nc4ccccc4o3)C2)c2nccnc21` [Example 214, 5-(trans-3-(benzo[d]oxazol-2-ylamino)cyclobutyl)-7,7-dimethyl-5H-pyrrolo[2,3-b]pyrazin-6(7H)-one] it is 2.87 nM; for `CC1(C)C(=O)N([C@H]2C[C@@H](Nc3nc4ccccc4s3)C2)c2nccnc21` [Example 215, 5-(cis-3-(benzo[d]thiazol-2-ylamino)cyclobutyl)-7,7-dimethyl-5H-pyrrolo[2,3-b]pyrazin-6(7H)-one] it is 0.978 nM.

`Cn1c(=O)n([C@H]2C[C@@H](Nc3nc4ccccc4s3)C2)c2nccnc21` [Example 216, 1-(cis-3-(benzo[d]thiazol-2-ylamino)cyclobutyl)-3-methyl-1H-imidazo[4,5-b]pyrazin-2(3H)-one] returned an IC50 of 16.9 nM. The figure for `CC1(C)C(=O)N([C@H]2C[C@@H](NC(=O)c3nc4ccccc4[nH]3)C2)c2nccnc21` [Example 217, N-(cis-3-(7,7-dimethyl-6-oxo-6,7-dihydro-5H-pyrrolo[2,3-b]pyrazin-5-yl)cyclobutyl)-1H-benzo[d]imidazolE-2-carboxamide] is 38.3 nM; for `Cc1ccc(N[C@H]2CC[C@@H](N3C(=O)C(C)(C)c4nccnc43)CC2)nc1` [Example 218, 7,7-dimethyl-5-(cis-4-((5-methylpyridin-2-yl)amino)cyclohexyl)-5H-pyrrolo[2,3-b]pyrazin-6(7H)-one] it is 1410 nM; for `O=c1n(C2CC2)c2nccnc2n1[C@H]1C[C@H](Nc2ncc3ccccc3n2)C1` [Example 219, 1-cyclopropyl-3-(trans-3-(quinazolin-2-ylamino)cyclobutyl)-1H-imidazo[4,5-b]pyrazin-2(3H)-one] it is 554 nM. For `O=c1n(C2CC2)c2nccnc2n1[C@H]1C[C@H](Nc2nc3ccccc3o2)C1` [Example 220, 1-(trans-3-(benzo[d]oxazol-2-ylamino)cyclobutyl)-3-cyclopropyl-1H-imidazo[4,5-b]pyrazin-2(3H)-one] the value was 2.35 nM; for `O=c1n(C2CC2)c2nccnc2n1[C@H]1C[C@H](Nc2ccc(Cl)cn2)C1` [Example 221, 1-(trans-3-((5-chloropyridin-2-yl)amino)cyclobutyl)-3-cyclopropyl-1H-imidazo[4,5-b]pyrazin-2(3H)-one], 2.77 nM; for `O=c1n(C2CC2)c2nccnc2n1[C@H]1C[C@H](Nc2nc3cc(F)ccc3s2)C1` [Example 222, 1-cyclopropyl-3-(trans-3-((5-fluorobenzo[d]thiazol-2-yl)amino)cyclobutyl)-1H-imidazo[4,5-b]pyrazin-2(3 H)-one], 7.61 nM. In turn, `O=c1n(C2CC2)c2nccnc2n1[C@H]1C[C@H](Nc2ccc3cccnc3n2)C1` [Example 223, 1-(trans-3-((1,8-naphthyridin-2-yl)amino)cyclobutyl)-3-cyclopropyl-1H-imidazo[4,5-b]pyrazin-2(3 H)-one] showed an IC50 of 18.4 nM. The compound `COc1ccc2nc(N[C@H]3C[C@H](n4c(=O)n(C5CC5)c5nccnc54)C3)sc2c1` [Example 224, 1-cyclopropyl-3-(trans-3-((6-methoxybenzo[d]thiazol-2-yl)amino)cyclobutyl)-1H-imidazo[4,5-b]pyrazin-2(3 H)-one] came in with a half-maximal inhibitory concentration (IC50) of 57.7 nM. For `COc1ccc2nc(N[C@H]3C[C@H](n4c(=O)n(C5CC5)c5nccnc54)C3)sc2c1` [Example 225, 1-cyclopropyl-3-(trans-3-((6-methoxy-1,3-benzothiazol-2-yl)amino)cyclobutyl)-1,3-dihydro-2H-imidazo[4,5-b]pyrazin-2-one] the value was 10.8 nM; for `Cn1c(N[C@H]2C[C@H](n3c(=O)n(C4CC4)c4nccnc43)C2)nc2ccccc21` [Example 226, 1-cyclopropyl-3-(trans-3-((1-methyl-1H-benzo[d]imidazol-2-yl)amino)cyclobutyl)-1H-imidazo[4,5-b]pyrazin-2(3H)-one], 1.2 nM; for `O=c1n(C2CC2)c2nccnc2n1[C@H]1CC[C@H](Nc2ccc3ncccc3n2)CC1` [Example 227, 1-(trans-4-((1,5-naphthyridin-2-yl)amino)cyclohexyl)-3-cyclopropyl-1H-imidazo[4,5-b]pyrazin-2(3H)-one], 1.87 nM.

Compound `O=c1n(C2CC2)c2nccnc2n1[C@H]1C[C@H](Nc2ccc3ncccc3n2)C1` [Example 228, 1-(trans-3-((1,5-naphthyridin-2-yl)amino)cyclobutyl)-3-cyclopropyl-1H-imidazo[4,5-b]pyrazin-2(3H)-one] had an IC50 of 246 nM.

`O=c1n(C2CC2)c2nccnc2n1[C@H]1C[C@H](Nc2nc3ccc(Cl)cc3o2)C1` [Example 229, 1-(trans-3-((6-chlorobenzo[d]oxazol-2-yl)amino)cyclobutyl)-3-cyclopropyl-1H-imidazo[4,5-b]pyrazin-2(3H)-one] yielded an IC50 of 10.1 nM.

Compound `O=c1n(C2CC2)c2nc(Br)cnc2n1[C@H]1C[C@H](Nc2nc3ccccc3s2)C1` [Example 230, 1-(trans-3-(benzo[d]thiazol-2-ylamino)cyclobutyl)-5-bromo-3-cyclopropyl-1H-imidazo[4,5-b]pyrazin-2(3H)-one] came in with an IC50 of 0.393 nM. This IC50 lies about 26-fold lower than the previous one.

`O=c1n(C2CC2)c2nc(Br)cnc2n1[C@H]1C[C@H](Nc2ncc3ccc(F)cc3n2)C1` [Example 231, 5-bromo-3-cyclopropyl-1-(trans-3-((7-fluoroquinazolin-2-yl)amino)cyclobutyl)-1H-imidazo[4,5-b]pyrazin-2(3H)-one] displayed an IC50 of 31.5 nM. This IC50 lies about 80-fold higher than the previous one.

With “(R)-1-(trans-3-(benzo[d]thiazol-2-ylamino)cyclobutyl)-3-hydroxy-3-methyl-1H-pyrrolo[2,3-b]pyridin-2(3H)-one and (S)-1-(trans-3-(benzo[d]thiazol-2-ylamino)cyclobutyl)-3-hydroxy-3-methyl-1H-pyrrolo[2,3-b]pyridin-2(3H)-one [Example 181]”, half-maximal inhibition (IC50) was put at 2.86 nM.
